Measured values from patent US9388164B2, “Methods of using pyruvate kinase activators” (AGIOS PHARMACEUTICALS, INC, priority 2011, dated 2016).

Experiments:
Type in all cases: biochemical
PKR wt = PKR wt (Homo sapiens, UniProt P30613); test: PKR WT Single Point Percent Activation Assay; conditions: compound at 1 μM
Description: PKR WT Single Point Percent Activation Assay
(§1) A compound described herein was diluted with DMSO and tested at 1 μM concentration. The enzyme was diluted in 1× Buffer: (100 mM KCl, 50 mM Tris 7.5, 5 mM MgCl2, 1 mM DTT, 0.03% BSA). 2 μL of compound solution was first added into wells, and then 180 μL of enzyme solution was added. Assays were assembled except for ADP, and plates were stored for 60 minutes at RT. 20 μL ADP was added to start the assay and assay output was evaluated using OD340 at SpectraMax. The assay was run at room temperature.
PKR wt (100 ng/well), Tris pH 7.5 (50 mM), KCl (100 mM), MgCl2 (5 mM), ADP (0.48 mM), PEP (0.15 mM), NADH (180 μM), LDH (0.5 units, Sigma 59023), DTT (1 mM) and BSA (0.03%).

PKR R510Q = PKR R510Q (Homo sapiens, UniProt P30613, R510Q); test: PKR R510Q Single Point Percent Activation Assay; conditions: compound at 1 μM; read-out: % Act. R510Q
PKR R510Q, sequence (P30613 whole entry R510Q): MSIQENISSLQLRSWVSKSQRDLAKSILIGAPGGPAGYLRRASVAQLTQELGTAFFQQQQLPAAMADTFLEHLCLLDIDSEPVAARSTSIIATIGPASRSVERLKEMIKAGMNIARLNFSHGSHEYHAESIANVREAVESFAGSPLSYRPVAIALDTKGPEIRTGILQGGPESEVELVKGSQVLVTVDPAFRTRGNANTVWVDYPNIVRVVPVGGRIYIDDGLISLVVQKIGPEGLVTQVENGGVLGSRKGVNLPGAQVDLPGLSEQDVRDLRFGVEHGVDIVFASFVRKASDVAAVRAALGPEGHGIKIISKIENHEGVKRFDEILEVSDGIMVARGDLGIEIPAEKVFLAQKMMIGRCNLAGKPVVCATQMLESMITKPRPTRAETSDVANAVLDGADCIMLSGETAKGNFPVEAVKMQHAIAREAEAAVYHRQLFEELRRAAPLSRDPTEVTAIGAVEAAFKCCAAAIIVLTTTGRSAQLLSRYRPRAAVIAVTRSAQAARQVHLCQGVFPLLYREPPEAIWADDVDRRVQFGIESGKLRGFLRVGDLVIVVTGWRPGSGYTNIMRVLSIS
Description: PKR R510Q Single Point Percent Activation Assay
as §1
PKR R510Q (40 ng/well), Tris pH 7.5 (50 mM), KCl (100 mM), MgCl2 (5 mM), ADP (0.2 mM), PEP (0.11 mM), NADH (180 μM), LDH (0.5 units, Sigma 59023), DTT (1 mM) and BSA (0.03%).

PKR R532W = PKR R532W (Homo sapiens, UniProt P30613, R532W); test: PKR R532W Single Point Percent Activation Assay; conditions: compound at 1 μM; read-out: % Act. R532W
PKR R532W, sequence (P30613 whole entry R532W): as the sequence (P30613 whole entry R510Q) above, with Q510R, R532W counted along it
Description: PKR R532W Single Point Percent Activation Assay
as §1
PKR R532W (100 ng/well), Tris pH 7.5 (50 mM), KCl (100 mM), MgCl2 (5 mM), ADP (0.36 mM), PEP (0.1 mM), NADH (180 μM), LDH (0.5 units, Sigma 59023), DTT (1 mM) and BSA (0.03%).

PKR T384W = PKR T384W (Homo sapiens, UniProt P30613); test: PKR T384W Single Point Percent Activation Assay; conditions: compound at 1 μM
PKR T384W, sequence (P30613 whole entry T384M): as the sequence (P30613 whole entry R510Q) above, with T384M, Q510R counted along it
Description: PKR T384W Single Point Percent Activation Assay
as §1, with “180 μL enzyme solution” for “180 μL of enzyme solution”
PKR T384W soluble (300 ng/well), Tris pH 7.5 (50 mM), KCl (100 mM), MgCl2 (5 mM), ADP (0.08 mM), PEP (0.23 mM), NADH (180 μM), LDH (0.5 units, Sigma 59023), DTT (1 mM) and BSA (0.03%).

PKR wt, sequence (P30613 whole entry): as the sequence (P30613 whole entry R510Q) above, with Q510R counted along it

Structure (SMILES) | activation at 1 µM (PKR wt) [%] | activation at 1 µM (PKR R510Q) [%] | activation at 1 µM (PKR R532W) [%] | % Act. T384W (PKR T384W)
O=C(OC1CN(C(=O)c2ccc(NS(=O)(=O)c3cccc4cccnc34)cc2)C1)c1ccccn1 | 101 to 500 | 101 to 500 | 1 to 100 | B (a % activation at 1 μM of from 101 to 500)
COC1(Cc2ccccc2)CN(C(=O)c2ccc(NS(=O)(=O)c3cccc4cccnc34)cc2)C1 | 101 to 500 | 101 to 500 | 101 to 500 | B (a % activation at 1 μM of from 101 to 500)
O=C(c1ccc(NS(=O)(=O)c2cccc3cccnc23)c(F)c1)N1CC(Oc2ccccc2)C1 | 101 to 500 | 101 to 500 | 101 to 500 | B (a % activation at 1 μM of from 101 to 500)
Cc1cc(C(=O)N2CC(N(C)Cc3ccccc3)C2)ccc1NS(=O)(=O)c1cccc2cccnc12 | 101 to 500 | 101 to 500 | 101 to 500 | A (a % activation at 1 μM of from 1 to 100)
Cc1cc(C(=O)N2CC(OC(=O)c3ccccn3)C2)ccc1NS(=O)(=O)c1cccc2cccnc12 | 1 to 100 | 101 to 500 | 1 to 100 | A (a % activation at 1 μM of from 1 to 100)
O=C(c1ccc(NS(=O)(=O)c2cccc3cccnc23)cc1)N1CC(Nc2ccccc2)C1 | 1 to 100 | 1 to 100 | 1 to 100 | A (a % activation at 1 μM of from 1 to 100)
COc1ccccc1NC1CN(C(=O)c2ccc(NS(=O)(=O)c3cccc4cccnc34)cc2)C1 | 1 to 100 | 101 to 500 | 1 to 100 | A (a % activation at 1 μM of from 1 to 100)
COc1ccccc1NC1CN(C(=O)c2ccc(NS(=O)(=O)c3cccc4cccnc34)c(C)c2)C1 | 1 to 100 | 101 to 500 | 1 to 100 | A (a % activation at 1 μM of from 1 to 100)
COc1ccccc1NC1CN(C(=O)c2ccc(NS(=O)(=O)c3cccc4cccnc34)c(F)c2)C1 | 1 to 100 | 1 to 100 | 1 to 100 | A (a % activation at 1 μM of from 1 to 100)
COc1ccccc1NC1CN(C(=O)c2ccc(S(=O)(=O)Nc3cccc4cccnc34)cc2)C1 | 101 to 500 | 101 to 500 | 101 to 500 | A (a % activation at 1 μM of from 1 to 100)
O=C(c1ccc(S(=O)(=O)Nc2cccc3cccnc23)cc1)N1CC(OCc2ccccc2)C1 | 101 to 500 | 101 to 500 | 1 to 100 | B (a % activation at 1 μM of from 101 to 500)
Cc1cc(C(=O)N2CC(OCc3ccccc3)C2)ccc1NS(=O)(=O)c1cccc2cccnc12 | 101 to 500 | 101 to 500 | 1 to 100 | B (a % activation at 1 μM of from 101 to 500)
O=C(NC1CN(C(=O)c2ccc(NS(=O)(=O)c3cccc4cccnc34)c(F)c2)C1)c1ccccn1 | 101 to 500 | 101 to 500 | 1 to 100 | B (a % activation at 1 μM of from 101 to 500)
CN(c1ccccc1)C1CN(C(=O)c2ccc(NS(=O)(=O)c3cccc4cccnc34)cc2)C1 | 101 to 500 | 101 to 500 | 101 to 500 | B (a % activation at 1 μM of from 101 to 500)
O=C(Cc1ccccc1)OC1CN(C(=O)c2ccc(NS(=O)(=O)c3cccc4cccnc34)cc2)C1 | 101 to 500 | 101 to 500 | 1 to 100 | B (a % activation at 1 μM of from 101 to 500)
O=C(OC1CN(C(=O)c2ccc(NS(=O)(=O)c3cccc4cccnc34)c(F)c2)C1)c1ccccn1 | 101 to 500 | 101 to 500 | 101 to 500 | B (a % activation at 1 μM of from 101 to 500)

Structure (SMILES) | activation at 1 µM (PKR wt) [%] | activation at 1 µM (PKR R510Q) [%] | activation at 1 µM (PKR R532W) [%] | % Act. T384W (PKR T384W)
O=C(c1ccc(NS(=O)(=O)c2cccc3cccnc23)cc1)N1CC(NCc2ccccc2)C1 | 101 to 500 | 101 to 500 | 101 to 500 | B (a % activation at 1 μM of from 101 to 500)
COc1ncccc1NC1CN(C(=O)c2ccc(NS(=O)(=O)c3cccc4cccnc34)c(C)c2)C1 | 101 to 500 | 101 to 500 | 101 to 500 | B (a % activation at 1 μM of from 101 to 500)
COc1cccnc1NC1CN(C(=O)c2ccc(NS(=O)(=O)c3cccc4cccnc34)c(C)c2)C1 | 101 to 500 | 101 to 500 | 101 to 500 | B (a % activation at 1 μM of from 101 to 500)
COc1ccccc1OC1CN(C(=O)c2ccc(NS(=O)(=O)c3cccc4cccnc34)cc2OC)C1 | 101 to 500 | 1 to 100 | 101 to 500 | B (a % activation at 1 μM of from 101 to 500)
Cc1cc(C(=O)N2CC(Nc3ccncc3)C2)ccc1NS(=O)(=O)c1cccc2cccnc12 | 101 to 500 | 1 to 100 | 1 to 100 | A (a % activation at 1 μM of from 1 to 100)
COc1ccncc1NC1CN(C(=O)c2ccc(NS(=O)(=O)c3cccc4cccnc34)c(C)c2)C1 | 101 to 500 | 1 to 100 | 1 to 100 | B (a % activation at 1 μM of from 101 to 500)
COc1ccccc1OC1CN(C(=O)c2ccc(NS(=O)(=O)c3cccc4cccnc34)c(F)c2)C1 | 101 to 500 | 1 to 100 | 101 to 500 | B (a % activation at 1 μM of from 101 to 500)
Cc1cc(C(=O)N2CC(OC(=O)Nc3ccccn3)C2)ccc1NS(=O)(=O)c1cccc2cccnc12 | 1 to 100 | 101 to 500 | 101 to 500 | A (a % activation at 1 μM of from 1 to 100)
COc1cc(C(=O)N2CC(OC(=O)Nc3ccccn3)C2)ccc1NS(=O)(=O)c1cccc2cccnc12 | 1 to 100 | 101 to 500 | 1 to 100 | A (a % activation at 1 μM of from 1 to 100)
COc1cc(NS(=O)(=O)c2cccc3cccnc23)ccc1C(=O)N1CC(OC(=O)Nc2ccccn2)C1 | 101 to 500 | 101 to 500 | 101 to 500 | B (a % activation at 1 μM of from 101 to 500)
COc1cc(C(=O)N2CC(Oc3ccccc3OC)C2)ccc1NS(=O)(=O)c1cccc2cccnc12 | 101 to 500 | 101 to 500 | 101 to 500 | B (a % activation at 1 μM of from 101 to 500)
O=C(Nc1ccccn1)NC1CN(C(=O)c2ccc(NS(=O)(=O)c3cccc4cccnc34)cc2)C1 | 101 to 500 | 101 to 500 | 101 to 500 | B (a % activation at 1 μM of from 101 to 500)
O=C(Nc1ccccn1)OC1CN(C(=O)c2ccc(NS(=O)(=O)c3cccc4cccnc34)c(F)c2)C1 | 101 to 500 | 101 to 500 | 101 to 500 | B (a % activation at 1 μM of from 101 to 500)
CC(C)NC(=O)NC1CN(C(=O)c2ccc(NS(=O)(=O)c3cccc4cccnc34)cc2)C1 | 101 to 500 | 101 to 500 | 101 to 500 | B (a % activation at 1 μM of from 101 to 500)
Cc1cc(C(=O)N2CC(NC(=O)NC(C)C)C2)ccc1NS(=O)(=O)c1cccc2cccnc12 | 101 to 500 | 101 to 500 | 101 to 500 | B (a % activation at 1 μM of from 101 to 500)
O=C(c1ccc(NS(=O)(=O)c2cccc3cccnc23)cc1)N1CC(=Cc2ccccc2)C1 | 1 to 100 | 1 to 100 | 1 to 100 | A (a % activation at 1 μM of from 1 to 100)
